System: Dentine
Test: Bio-modification of human mid coronal dentine assessed as fold change in complex modulus at 0.2% w/v incubated for 1 hrs by dynamic mechanical analysis
Format: functional

**Q.** Oc1cc(O)c(C[C@@H]2Oc3c4c(cc(O)c3[C@H]2c2ccc(O)c(O)c2)O[C@H](c2ccc(O)c(O)c2)[C@@H](O)C4)c(O)c1 was tested. Which “fold change (FC)” value did it give?
**A.** Its value is 4.2.

**Q.** For Oc1cc(O)c(C[C@H](O)[C@H](c2ccc(O)c(O)c2)c2c(O)cc(O)c3c2O[C@@H](c2ccc(O)c(O)c2)[C@@H](O)C3)c(O)c1, which “fold change (FC)” value is on record?
**A.** Its value is 3.3.

**Q.** With Oc1cc(O)c2c(c1)O[C@H]([C@H](c1ccc(O)c(O)c1)c1c(O)cc(O)c3c1O[C@H](c1ccc(O)c(O)c1)[C@@H](O)C3)C2 as the molecule, how does the “fold change (FC)” value read?
**A.** Its value is 5.2.

**Q.** For Oc1cc(O)c(C[C@H](O)[C@H](c2ccc(O)c(O)c2)c2c(O)cc(O)c3c2O[C@H](c2ccc(O)c(O)c2)[C@@H](O)C3)c(O)c1, which “fold change (FC)” value is on record?
**A.** Its value is 3.3.

**Q.** Oc1cc(O)c(C[C@H](O)[C@H](c2ccc(O)c(O)c2)c2c(O)cc(O)c3c2O[C@@H](c2ccc(O)c(O)c2)[C@H](O)C3)c(O)c1 was tested. Which “fold change (FC)” value did it give?
**A.** The value was 3.3.

— ChEMBL document CHEMBL5215000, “Seco B-Type Oligomers from Pinus massoniana Expand the Procyanidin Chemical Space and Exhibit Dental Bioactivity” (2022)
